Results published in BindingDB's records for doi:10.1021/jm0503244 (Merck Research Laboratories, 2005).

Tests used:
Assay in all cases: S1P Receptor Binding Assay
[1] = target: Sphingosine 1-phosphate receptor 5 (Homo sapiens, UniProt Q9H228); conditions: 25 °C
Description: (§1) The assay measures the displacement of [33P]-labeled sphingosine-1-phosphate (S1P) by test compounds from human S1P receptors expressed on CHO cell membranes. Binding was performed for 60 min at room temperature and terminated by collecting the membranes onto GF/B filter plates with a Packard Filtermate Universal Harvester. Filter bound radionuclide was measured on a PerkinElmer 1450 MicroBeta. Specific binding was calculated by subtracting radioactivity that remained in the presence of 1000-fold excess of unlabeled S1P.

[2] = target: T1, Sphingosine 1-phosphate receptor 4 (Homo sapiens, UniProt O95977); conditions: 25 °C
T1 sequence (O95977 whole entry): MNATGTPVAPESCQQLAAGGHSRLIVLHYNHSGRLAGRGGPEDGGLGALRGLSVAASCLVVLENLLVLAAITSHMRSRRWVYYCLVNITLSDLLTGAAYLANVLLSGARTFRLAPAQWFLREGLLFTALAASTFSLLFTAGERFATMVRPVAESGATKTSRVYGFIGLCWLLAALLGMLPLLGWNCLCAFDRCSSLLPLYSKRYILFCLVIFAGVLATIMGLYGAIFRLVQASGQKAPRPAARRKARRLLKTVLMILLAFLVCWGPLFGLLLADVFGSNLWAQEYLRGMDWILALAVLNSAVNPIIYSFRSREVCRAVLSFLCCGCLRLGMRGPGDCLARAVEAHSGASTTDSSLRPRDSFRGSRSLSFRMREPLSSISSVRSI
Description: as §1

[3] = target: Sphingosine 1-phosphate receptor 3 (Homo sapiens, UniProt Q99500); conditions: pH 7.5; 22 °C
Chain of Sphingosine 1-phosphate receptor 3 (Q99500 whole entry): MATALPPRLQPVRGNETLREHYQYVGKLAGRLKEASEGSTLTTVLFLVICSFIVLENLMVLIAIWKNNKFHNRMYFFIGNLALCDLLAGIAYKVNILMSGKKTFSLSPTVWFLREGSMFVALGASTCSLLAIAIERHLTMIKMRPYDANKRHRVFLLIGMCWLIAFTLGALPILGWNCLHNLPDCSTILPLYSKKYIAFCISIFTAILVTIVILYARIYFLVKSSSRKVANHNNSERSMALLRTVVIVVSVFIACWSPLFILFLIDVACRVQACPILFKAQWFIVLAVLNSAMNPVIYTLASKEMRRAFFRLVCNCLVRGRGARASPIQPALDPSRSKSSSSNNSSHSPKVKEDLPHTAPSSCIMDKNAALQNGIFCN
Description: as §1

Chain of Sphingosine 1-phosphate receptor 5 (Q9H228 whole entry): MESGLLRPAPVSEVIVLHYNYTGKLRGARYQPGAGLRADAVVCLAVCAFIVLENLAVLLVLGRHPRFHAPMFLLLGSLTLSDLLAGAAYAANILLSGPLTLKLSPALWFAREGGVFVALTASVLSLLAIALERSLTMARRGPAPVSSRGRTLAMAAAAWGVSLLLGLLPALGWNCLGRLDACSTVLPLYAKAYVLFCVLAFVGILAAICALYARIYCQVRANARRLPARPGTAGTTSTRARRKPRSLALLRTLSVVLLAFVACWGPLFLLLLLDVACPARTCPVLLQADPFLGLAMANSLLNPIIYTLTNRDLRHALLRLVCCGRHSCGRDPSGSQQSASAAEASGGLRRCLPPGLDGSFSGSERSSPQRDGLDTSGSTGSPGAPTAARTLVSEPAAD

IC50 [1] [nM] | IC50 [2] [nM] | IC50 [3] [nM] | Compound
2.4 | 350 |  | CCCCc1ccc(-c2nc(-c3ccc(CN4CC(C(=O)O)C4)cc3)no2)cc1 [1-({4-[5-(4-butylphenyl)-1,2,4-oxadiazol-3-yl]phenyl}methyl)azetidine-3-carboxylic acid]
 |  | 10000 | CC(C)(C)Cc1ccc(-c2nc(-c3ccc(CN4CC(C(=O)O)C4)cc3)no2)cc1 [1-[(4-{5-[4-(2,2-dimethylpropyl)phenyl]-1,2,4-oxadiazol-3-yl}phenyl)methyl]azetidine-3-carboxylic acid]
 |  | 3090 | CCC(C)(C)c1ccc(-c2nc(-c3ccc(CN4CC(C(=O)O)C4)cc3)no2)cc1 [1-[(4-{5-[4-(2-methylbutan-2-yl)phenyl]-1,2,4-oxadiazol-3-yl}phenyl)methyl]azetidine-3-carboxylic acid]
